Laboratory results as given in patent US11998549B2, “Methods of treating a vascular leakage-associated disease or disorder” (UNITY HEALTH TORONTO, priority 2019, dated 2024).

Columns and labels:
[1] = tested on: LPS induced zebrafish sepsis model; assay: Survival in LPS induced zebrafish sepsis model; format: in vivo; conditions: 24 h
Method: (§1) An LPS induced zebrafish sepsis model which mimics the hallmarks of human sepsis was developed (Philip et al., 2017). Zebrafish show varied susceptibility and responsiveness to LPS from different bacterial strains. Exposure of zebrafish larvae at 3 days post-fertilization (dpf) to two types of LPS (LPS from Escherichia coli 0111:B4 (Sigma) at 100 μg/ml for 5-6 hrs; or LPS from Salmonella at 27 μg/ml for 24 hrs) were both effective in inducing tail fin swelling, increased ROS production, increased vascular leakage and increased mortality.
Survival analyses for zebrafish (wildtype) exposed to various concentrations of LPS (Escherichia coli 0111:B4; Sigma) was performed. 3 dpf larvae were exposed to LPS by immersion technique. Larvae were treated with 10, 25, 50, 125, 250, 500, 1000, 2500, 5000 or 10000 nM UNC0642 along with 100 μg/ml LPS (LPS was dissolved in eggwater), by static immersion at 28.5° C. for 24 h in a total volume of 2 mL per treatment. Control larvae were exposed to egg water. Survival numbers were recorded and EC50s calculated.
3 dpf larvae were exposed to LPS by immersion technique. […] Control larvae were exposed to egg water. Survival numbers were recorded and EC50s calculated. The percentage (%) of embryos showing vascular leakage was also recorded and 1050s calculated.

CLP-induced mortality = assay: Mouse cecal ligation and puncture (CLP) model of sepsis, survival; format: in vivo; conditions: intravenous infusion of 1 mg/kg
Method: The CLP model is a well established clinically relevant model for human sepsis (Smeding et al., 2012; Amatullah et al., 2016). Male 8-12 week old C57/B16 mice (Jackson lab) were randomized to CLP or sham surgeries. In anesthetised mice, the cecum was exteriorized, ligated, and perforated. Control animals were exposed to sham surgery, in which the cecum was manipulated, but not ligated or punctured. After surgery, animals received daily fluid resuscitation (subcutaneous (s.c.) 50 ml/kg saline), antibiotic (intraperitoneal (i.p.) imipenem 25 mg/kg) and pain management (s.c. buprenorphine 0.2 mg/kg). Experiments were divided into 2 groups: (1) to assess 7-day survival, and (2) to identify a mechanism of action of a G9a inhibitor in vivo. All experimental mice were randomized and investigators were blinded to group assignment.

[2] = tested on: IL-1, IL-6, TNFα and IL811 transcript levels; assay: Quantitative RT-PCR of pro-inflammatory cytokines in zebrafish sepsis model; format: in vivo; conditions: 3 dpf larvae, LPS 27 μg/ml (Salmonella) + 1 μM UNC0642, 24 h
Text: (§2) Quantitative reverse transcription polymerase chain reaction (RT-PCR) was used to assess relative expression of cytokines (an average of 3 trials, each trial with a pool of 20 larvae/treatment) and cellular junction proteins (an average of 3 trials, each trial with a pool of 20 larvae/treatment), using elongation factor 1 a (EF1a) as the housekeeping gene control. […] UNC0642 reverses LPS induced reduction in the transcript levels of cellular junction proteins, namely occludin a, occludin b and ZO-1. UNC0642 also upregulates cellular junction protein transcript levels of occludin b, claudin 5a, claudin 5b and claudin 2, potentially improving vascular stability.
(§3) RNA extraction and cDNA synthesis. Wildtype zebrafish larvae (3 dpf) were exposed to Vehicle, LPS (27 μg/ml; LPS from Salmonella) or LPS+1 μM UNC0642 by static immersion for 24 h. Total RNA was extracted from these larvae (pool of 20 larvae/treatment) using the RNeasy extraction kit (Qiagen™, Mississauga, Ontario, Canada) and treated with DNase. The concentration of total RNA was determined spectrophotometrically at 260/280 nm using a NanoDrop™ spectrophotometer. […]
(§4) PCR conditions. […] The primers are not listed, since suitable primers will be readily apparent to the skilled person.

[3] = tested on: H3K9me2 in venous endothelial cell nuclei; assay: H3K9me2 immunofluorescence in zebrafish larvae; format: in vivo; conditions: LPS 100 μg/ml + 1 μM UNC0642, 5 h
Method: 3 dpf Tg eGFP) larvae were exposed to Vehicle, LPS (100 μg/ml) or LPS+1 μM UNC0642 by static immersion for 5 h at 28.5° C. Embryos were fixed overnight at 4° C. in 2% PFA in PBST (PBS+0.1% Tween 20). Embryos were then washed 4×5 min in PBST at room temperature (RT) and permeabilized for 30 min at RT in PBST+0.5% TritonX-100. Embryos were then blocked in PBST+0.1% TritonX-100+10% NGS+1% BSA for 2 h at RT. Embryos were incubated with primary antibodies (Mouse monoclonal (mAbcam 1220) to Histone H3 (di-methyl K9) in blocking solution (1:200) overnight at 4° C. Embryos were then washed 6×20 min in PBST at RT and then incubated with the secondary antibody (Goat anti-mouse IgG Alexa fluor 647; 1:1000) in blocking solution for 2 h at RT. Embryos were finally washed 3×10 min in PBST at RT. Images were taken with a Zeiss Confocal Microscope.

[4] = tested on: LPS-induced tailfin edema; assay: Tailfin edema in LPS-treated zebrafish larvae; format: in vivo
Method: as §1

[5] = tested on: human pulmonary microvascular endothelial cells (HPMECs); assay: FITC dextran permeability assay in HPMEC monolayer; format: cell-based; conditions: FITC-conjugated dextran
Text: Cultured endothelial cells are used to model the microvascular endothelium, because of the feasibility of performing complex molecular or pharmacological experiments to study cellular signalling pathways related to barrier function and integrity. In addition, the lung is the organ most often affected by sepsis induced-MODS. To determine the functional significance of G9a inhibition in human cells, solute permeability and electrical resistance across a confluent human pulmonary microvascular endothelial cell (HPMEC) monolayer was assessed. For both experiments HPMECs were seeded on 0.4 μm-pore polyester transwells (Costar) coated with Attachment Factor (Invitrogen), grown to confluency, and then […] with either UNC0462 or vehicle control.
FITC fluorescence was be measured at different time intervals in samples taken from the bottom compartment as a measure of paracellular dextran leak.

[6] = tested on: cellular junction protein transcript levels; assay: Quantitative RT-PCR of cellular junction proteins in zebrafish sepsis model; format: in vivo; conditions: 3 dpf larvae, LPS 27 μg/ml (Salmonella) + 1 μM UNC0642, 24 h
Text: as §2, §3, §4

COc1cc2c(NC3CCN(C(C)C)CC3)nc(N3CCC(F)(F)CC3)nc2cc1OCCCN1CCCC1 [UNC0642, 2-(4,4-Difluoropiperidin-1-yl)-6-methoxy-N-[1-(propan-2-yl)piperidin-4-yl]-7-(3-(pyrrolidin-1-yl)propoxy]quinazolin-4-amine]
EC50 ([1]; Escherichia coli, in Danio rerio, read-out: EC50 for improved survival of septic zebrafish larvae): 789 nM | Rescue of sepsis-associated mortality ([1]; comparison of UNC0642 and A366, zebrafish larvae, 27 μg/ml LPS): able to rescue | Reduction of CLP-induced absolute mortality (CLP-induced mortality): ~50% | LPS induced increases in transcript levels of pro-inflammatory cytokines IL-1, IL-6, TNFα and IL811 [2]: significantly mitigates | LPS induced increased H3K9me in venous endothelial cell nuclei [3]: rescues LPS induced increased H3K9me | LPS-induced tailfin edema [4]: significantly reduced | LPS-induced endothelial barrier dysfunction (increased dextran leakage) [5]: significantly mitigate | LPS induced reduction in transcript levels of occludin a, occludin b and ZO-1 [6]: reverses | Transcript levels of occludin b, claudin 5a, claudin 5b and claudin 2 [6]: upregulates
